This passage reports EC50 results from patent US9790198B2, “Substituted benzothiophenyl derivatives as GPR40 agonists for the treatment of type II diabetes” (Janssen Pharmaceutica NV, priority 2014, dated 2017).

The target in this experiment is human GPR40 (Homo sapiens (Human), UniProt O14842). Kind of experiment: GPR40 Calcium Flux Assay. It counts as cell-based. The note with it: transfected HEK293 cells stably expressing human GPR40, mean data, read-out: hGPR40 Ca^2+ Assay EC50. The protocol:
Compounds were tested in a calcium flux assay using transfected HEK293 cells stably expressing either human GPR40 or rat GPR40. Human GPR40 expressing cells were cultured in DMEM-High Glucose media supplemented with 10% fetal bovine serum, 1×L-Glutamine, 1× Penicillin/Streptomycin and 500 μg/mL G418. Rat GPR40 expressing cells were cultured in DMEM-High Glucose media supplemented with 10% fetal bovine serum and 1 μg/mL puromycin. Cells were plated into poly-D-lysine coated 384-well plates and cultured overnight in a 37° C. humidified tissue culture incubator under 5% CO2/90% O2 atmosphere. On the day of the experiment, the culture media was replaced with assay buffer (HBSS, 20 mM HEPES, 0.1% BSA) and the cells incubated at 37° C. for 1 h. Calcium-sensitive fluorescent dye (Fluo 8 No-Wash Calcium Dye, ABD Bioquest) was then added and the cells incubated for another 30 min at 37° C. followed by 15 min at room temperature while protected from the light. The cell plate and a plate of diluted compounds of Formula (I) were loaded into a fluorescent plate reader that added compounds onto the cells while measuring the fluorescence intensity of each well. The plate reader recorded fluorescence intensity at 1 second intervals for 8 min and provided the data for analysis in an Excel format. EC50 values were calculated using Prism (GraphPad) software.
A general note: Calcium assays in cells follow changes in intracellular calcium, usually with a dye or a luminescent sensor.

human GPR40, sequence (O14842 whole entry): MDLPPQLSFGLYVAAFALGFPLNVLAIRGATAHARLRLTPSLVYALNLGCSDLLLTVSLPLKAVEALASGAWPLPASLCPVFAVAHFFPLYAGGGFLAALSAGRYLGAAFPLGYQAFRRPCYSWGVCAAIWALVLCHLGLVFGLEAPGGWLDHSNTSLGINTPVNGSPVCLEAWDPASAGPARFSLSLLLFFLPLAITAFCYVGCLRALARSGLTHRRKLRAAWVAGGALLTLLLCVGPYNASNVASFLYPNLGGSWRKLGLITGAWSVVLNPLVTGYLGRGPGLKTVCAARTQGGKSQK

As a reminder, the EC50 is the concentration that produces a half-maximal response. Turning to `Cc1ccccc1-c1csc2ccc(COc3ccc([C@]4(CC(=O)O)C[C@@H](O)C4)cc3)cc12` [Cpd 31, 2-((1r,3r)-3-Hydroxy-1-(4-((3-(2-methylphenyl)benzo[b]thiophen-5-yl)methoxy)phenyl)cyclobutyl)acetic acid], the EC50 was 0.014 µM.
